Source: ChEMBL document CHEMBL1201862, “PubChem BioAssay data set” (2004)
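Each compound was tested at five concentrations against cells in 96-well plates for 48 hours. GI50 is the concentration that inhibits growth by half.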 The source made the active and inactive calls. Rule as the data show it: active = GI50 up to about 1.1 µM and inactive = higher.

Legend:
Assay in all cases: NCI-60 cell line screen, 48 h
SK-OV-3 = system: SK-OV-3
CCRF-CEM = system: CCRF-CEM
OVCAR-8 = system: OVCAR-8
MDA-MB-435 = system: MDA-MB-435
Malme-3M = system: Malme-3M
HCT-116 = system: HCT-116
LOX IMVI = system: LOX IMVI
SF-539 = system: SF-539
DU-145 = system: DU-145
TK-10 = system: TK-10
EKVX = system: EKVX
KM12 = system: KM12
SR = system: SR
A549 = system: A549
NCI-H522 = system: NCI-H522
SK-MEL-5 = system: SK-MEL-5
ACHN = system: ACHN
SW-620 = system: SW-620
HL-60 = system: HL-60
DLD-1 = system: DLD-1
HCC 2998 = system: HCC 2998
LXFL 529 = system: LXFL 529
HOP-18 = system: HOP-18
M14 = system: M14
HCT-15 = system: HCT-15
DMS-273 = system: DMS-273
MOLT-4 = system: MOLT-4
XF498 = system: XF498
MCF7 = system: MCF7
NCI-H226 = system: NCI-H226
PC-3 = system: PC-3
MDA-MB-231 = system: MDA-MB-231
OVCAR-3 = system: OVCAR-3
RXF 393 = system: RXF 393
SNB-75 = system: SNB-75
SN12C = system: SN12C
HOP-62 = system: HOP-62
CAKI-1 = system: CAKI-1
HOP-92 = system: HOP-92
UACC-62 = system: UACC-62
RPMI-8226 = system: RPMI-8226
COLO 205 = system: COLO 205
SNB-19 = system: SNB-19
MDA-N = system: MDA-N
SF-268 = system: SF-268
SF-295 = system: SF-295
NCI-H460 = system: NCI-H460
A498 = system: A498
T47D = system: T47D
SK-MEL-28 = system: SK-MEL-28
OVCAR-4 = system: OVCAR-4
K562 = system: K562
786-0 = system: 786-0
IGROV-1 = system: IGROV-1
UACC-257 = system: UACC-257
U-251 = system: U-251
KM-20L2 = system: KM-20L2
NCI-H23 = system: NCI-H23
OVCAR-5 = system: OVCAR-5
Hs-578T = system: Hs-578T
BT-549 = system: BT-549
RXF 631 = system: RXF 631
NCI/ADR-RES = system: NCI/ADR-RES
UO-31 = system: UO-31
HT-29 = system: HT-29
SK-MEL-2 = system: SK-MEL-2

For `CCCCCCCCCCCCCCCCSS(C)(=O)=O`, the GI50 (SK-OV-3) was 97.9 µM (inactive), the GI50 (CCRF-CEM) was 3.03 µM (inactive) and the GI50 (OVCAR-8) was 29.4 µM (inactive). For the same compound, the GI50 (MDA-MB-435) was > 100 µM (inactive), the GI50 (Malme-3M) was 7.45 µM (inactive) and the GI50 (HCT-116) was 10.6 µM (inactive). For the same compound, the GI50 (LOX IMVI) was 3.73 µM (inactive), the GI50 (SF-539) was 17.9 µM (inactive) and the GI50 (DU-145) was > 100 µM (inactive). The GI50 (TK-10) was 24.1 µM (inactive), the GI50 (EKVX) was > 91.2 µM (inactive) and the GI50 (KM12) was > 100 µM (inactive). For the same compound, the GI50 (SR) was 4.65 µM (inactive), the GI50 (A549) was > 65.3 µM (inactive) and the GI50 (NCI-H522) was 4.48 µM (inactive). For the same compound, the GI50 (SK-MEL-5) was 32.8 µM (inactive), the GI50 (ACHN) was 13.4 µM (inactive) and the GI50 (SW-620) was 5.21 µM (inactive). The GI50 (HL-60) was 4.07 µM (inactive), the GI50 (DLD-1) was 11.6 µM (inactive) and the GI50 (HCC 2998) was > 53.6 µM (inactive). The GI50 (LXFL 529) was 8.75 µM (inactive), the GI50 (HOP-18) was 58.7 µM (inactive) and the GI50 (M14) was 9.42 µM (inactive). For the same compound, the GI50 (HCT-15) was 11 µM, the GI50 (DMS-273) was 27 µM (inactive) and the GI50 (MOLT-4) was 1.39 µM (inactive). For the same compound, the GI50 (XF498) was 6.1 µM (inactive), the GI50 (MCF7) was 27.6 µM (inactive) and the GI50 (NCI-H226) was > 27.6 µM (inactive). For the same compound, the GI50 (PC-3) was > 100 µM (inactive), the GI50 (MDA-MB-231) was > 100 µM (inactive) and the GI50 (OVCAR-3) was 10.9 µM (inactive). For the same compound, the GI50 (RXF 393) was 5.43 µM (inactive), the GI50 (SNB-75) was 14.6 µM (inactive) and the GI50 (SN12C) was 37.8 µM (inactive). For the same compound, the GI50 (HOP-62) was > 100 µM (inactive), the GI50 (CAKI-1) was 10.1 µM (inactive) and the GI50 (HOP-92) was 15.5 µM (inactive). For the same compound, the GI50 (UACC-62) was 22.4 µM (inactive), the GI50 (RPMI-8226) was 5 µM (inactive) and the GI50 (COLO 205) was 19.2 µM (inactive). For the same compound, the GI50 (SNB-19) was > 100 µM (inactive), the GI50 (MDA-N) was 14.8 µM (inactive) and the GI50 (SF-268) was 10.7 µM (inactive). The GI50 (SF-295) was > 100 µM (inactive), the GI50 (NCI-H460) was > 61.2 µM (inactive) and the GI50 (A498) was 52.4 µM (inactive). The GI50 (T47D) was 8.97 µM (inactive), the GI50 (SK-MEL-28) was 11.9 µM (inactive) and the GI50 (OVCAR-4) was 18.7 µM (inactive). For the same compound, the GI50 (K562) was 9.64 µM (inactive), the GI50 (786-0) was 7.06 µM (inactive) and the GI50 (IGROV-1) was 32.4 µM (inactive). For the same compound, the GI50 (UACC-257) was 42.2 µM (inactive), the GI50 (U-251) was 55 µM (inactive) and the GI50 (KM-20L2) was 37.6 µM (inactive). For the same compound, the GI50 (NCI-H23) was 42.8 µM (inactive), the GI50 (OVCAR-5) was > 91 µM (inactive) and the GI50 (Hs-578T) was > 100 µM (inactive). The GI50 (BT-549) was 4.42 µM (inactive), the GI50 (RXF 631) was 16.3 µM (inactive) and the GI50 (NCI/ADR-RES) was 2.33 µM (inactive). The GI50 (UO-31) was 20.8 µM (inactive), the GI50 (HT-29) was 25.2 µM (inactive) and the GI50 (SK-MEL-2) was 5.81 µM (inactive).
